Experimental data as given in article PMC4391719 (PLoS ONE, 2015).
Where two headings read alike, the source gives them in different places. Where a SMILES comes first, the peptide text is derived from it. The star is where a group is joined. NODAGA = O=C(O)CN1CCN(CC(=O)O)CCN(C(CCC(=O)*)C(=O)O)CC1

Experiments:
[1] = tested on: meprin α; assay: recombinant meprin α in meprin assay buffer (50 mM Tris-HCl pH 7.5 + 1 mM MgCl2 + 1 mM CaCl2) and 1 M Tris pH 7.5; conditions: 37°C, up to 60 min
[2] = tested on: meprin β; assay: recombinant meprin β in meprin assay buffer (50 mM Tris-HCl pH 7.5 + 1 mM MgCl2 + 1 mM CaCl2) and 1 M Tris pH 7.5; conditions: 37°C, up to 60 min
[3] = Biodistribution of ^111In-labelled fragments in CD1 nu/nu mice without tumours; assay type: in vivo, mouse; conditions: CD1 nu/nu, mouse, iv, 100 kBq, total radioactivity
Description: (§1) Biodistribution of ^111In-PSI-CLNOD1, ^111In-PSI-CLNOD2, ^111In-PSI-CLNOD3 and ^111In-Ex4NOD40 were performed in CD 1 nu/nu mice with tumour xenografts that were prepared as previously described. Six week-old female CD1 nu/nu mice were subcutaneously inoculated in both shoulder regions with 8 x 10^6 CHL-GLP-1R positive cells suspended in PBS pH 7.4. After 4 weeks, the mice were randomly divided into groups of four mice. For the ^111In-labelled fragments mice without tumours were used. The mice were injected with approximately 100 kBq (1–5 pmol) of the respective ^111In-labelled peptide diluted in PBS pH 7.4 with 0.1% BSA via the tail vein and sacrificed after 4 h by CO2 asphyxiation. […] Blood, heart, lungs, spleen, kidneys, pancreas, stomach, intestine, liver, muscle, bone and tumour were removed, weighted and activity determined in a γ-counter (Packard Cobra II Auto Gamma, Perkin Elmer, Switzerland). The percentage of injected activity per gram tissue (%iA/g) was calculated for each sample. The statistical significance was determined using the two-way ANOVA test and corrected for multiple comparisons using Tukey’s honest significance test. The data was log-transformed to account for the variance in the groups.

[4] = tested on: CD1 nu/nu mice; assay: as above; assay type: in vivo, mouse; conditions: ^111In-labelled fragment ~100 kBq i.v. tail vein, mice without tumours, after 4 h
Description: as §1

[5] = in vivo, Biodistribution of fragment, Blood
[6] = in vivo, Biodistribution of fragment, Bone
[7] = in vivo, Biodistribution of fragment, Heart
[8] = in vivo, Biodistribution of fragment, Intestines
[9] = in vivo, Biodistribution of fragment, Kidneys
[10] = in vivo, Biodistribution of fragment, Liver
[11] = in vivo, Biodistribution of fragment, Lungs
[12] = in vivo, Biodistribution of fragment, Muscle
[13] = in vivo, Biodistribution of fragment, Pancreas
[14] = in vivo, Biodistribution of fragment, Spleen
[15] = in vivo, Biodistribution of fragment, Stomach
[16] = in vivo, activity retained in the kidneys at the end of the experiment
[17] = blood, ^111In-labelled fragment ~100 kBq i.v. tail vein, mice without tumours, after 4 h, read-out: Biodistribution of fragment, Blood
[18] = intestines, ^111In-labelled fragment ~100 kBq i.v. tail vein, mice without tumours, after 4 h, read-out: Biodistribution of fragment, Intestines
[19] = kidneys, ^111In-labelled fragment ~100 kBq i.v. tail vein, mice without tumours, after 4 h, read-out: Biodistribution of fragment, Kidneys
[20] = kidneys, ^111In-labelled fragments, mice without tumours, 4 h after injection, summary in text of S3 Table, read-out: activity retained in the kidneys at the end of the experiment
[21] = liver, ^111In-labelled fragment ~100 kBq i.v. tail vein, mice without tumours, after 4 h, read-out: Biodistribution of fragment, Liver
[22] = lungs, ^111In-labelled fragment ~100 kBq i.v. tail vein, mice without tumours, after 4 h, read-out: Biodistribution of fragment, Lungs
[23] = spleen, ^111In-labelled fragment ~100 kBq i.v. tail vein, mice without tumours, after 4 h, read-out: Biodistribution of fragment, Spleen
[24] = stomach, ^111In-labelled fragment ~100 kBq i.v. tail vein, mice without tumours, after 4 h, read-out: Biodistribution of fragment, Stomach

Row | Molecule | fragment found [1] | cleaved bond [2] | tissue uptake at 4 h [3, 5] [%ID/g] | tissue uptake at 4 h [3, 6] [%ID/g] | tissue uptake at 4 h [3, 7] [%ID/g] | tissue uptake at 4 h [3, 8] [%ID/g] | tissue uptake at 4 h [3, 9] [%ID/g] | tissue uptake at 4 h [3, 10] [%ID/g] | tissue uptake at 4 h [3, 11] [%ID/g] | tissue uptake at 4 h [3, 13] [%ID/g] | tissue uptake at 4 h [3, 14] [%ID/g] | tissue uptake at 4 h [3, 15] [%ID/g] | tissue uptake at 4 h [3, 16] [%ID/g] | further results
1 | HGEGTFTSDLSKQNleEEEAVRLFIEWLKNGGPSSGQNleEEEAVK(NODAGA)-NH2 | IEW-AVK(natIn-NODAGA)-NH2 | Nle-E and E-E and V-K(^natIn-NODAGA) | – | – | – | – | – | – | – | – | – | – | – | –
2 | NC(=O)[C@H](CCCCNC(=O)CCC(C(=O)O)N1CCN(CC(=O)O)CCN(CC(=O)O)CC1)NC(=O)[C@H](CO)NC(=O)[C@@H]1CCCN1C(=O)[C@@H]1CCCN1C(=O)[C@@H]1CCCN1C(=O)[C@@H](N)CCC(=O)O (stereo partly drawn) [CL3-F2] (H-EPPPSK(NODAGA)-NH2) | – | – | 0.02 | 0.21 | 0.01 | 0.1 | 2.22 | 0.07 | 0.04 | 0.01 | 0.03 | 0.02 | < 4 | tissue uptake at 4 h [3, 12]: 0.02 %ID/g
3 | NC(=O)[C@@H](N)CCCCNC(=O)CCC(C(=O)O)N1CCN(CC(=O)O)CCN(CC(=O)O)CC1 (stereo partly drawn) [CL1-F3] | – | – | – | 0.07 | 0.01 | 0.09 | 1.72 | 0.08 | 0.03 | 0.01 | 0.03 | 0.02 | < 4 | –
4 | CSCC[C@H](NC(=O)[C@H](Cc1ccc(O)cc1)NC(=O)[C@@H](N)CC(=O)O)C(=O)NCC(=O)N[C@@H](Cc1c[nH]c2ccccc12)C(=O)N[C@@H](CCSC)C(=O)N[C@@H](CC(=O)O)C(=O)N[C@@H](Cc1ccccc1)C(=O)N[C@@H](CCCCNC(=O)CCC(C(=O)O)N1CCN(CC(=O)O)CCN(CC(=O)O)CC1)C(N)=O (stereo partly drawn) [CL2-F1] | – | – | – | – | – | – | – | – | – | – | – | – | – | Biodistribution of fragment, Muscle [4]: 0.00 %iA/g; tissue uptake at 4 h [3, 17]: 0.02 %ID/g; tissue uptake at 4 h ([3]; bone, ^111In-labelled fragment ~100 kBq i.v. tail vein, mice without tumours, after 4 h, read-out: Biodistribution of fragment, Bone): 0.06 %ID/g; tissue uptake at 4 h ([3]; heart, ^111In-labelled fragment ~100 kBq i.v. tail vein, mice without tumours, after 4 h, read-out: Biodistribution of fragment, Heart): 0.02 %ID/g; tissue uptake at 4 h [3, 18]: 0.15 %ID/g; tissue uptake at 4 h [3, 19]: 2.5 %ID/g; tissue uptake at 4 h [3, 20]: < 4 %ID/g; tissue uptake at 4 h [3, 21]: 0.17 %ID/g; tissue uptake at 4 h [3, 22]: 0.04 %ID/g; tissue uptake at 4 h ([3]; pancreas, ^111In-labelled fragment ~100 kBq i.v. tail vein, mice without tumours, after 4 h, read-out: Biodistribution of fragment, Pancreas): 0.02 %ID/g; tissue uptake at 4 h [3, 23]: 0.07 %ID/g; tissue uptake at 4 h [3, 24]: 0.04 %ID/g
5 | CC(C)[C@H](NC(=O)[C@H](C)NC(=O)[C@@H](N)CCC(=O)O)C(=O)N[C@@H](CCCCNC(=O)CCC(C(=O)O)N1CCN(CC(=O)O)CCN(CC(=O)O)CC1)C(N)=O (stereo partly drawn) [CL1-F2] (H-EAVK(NODAGA)-NH2) | – | – | 0.01 | 0.06 | 0.02 | 0.1 | 2.97 | 0.08 | 0.04 | 0.01 | 0.03 | 0.02 | < 4 | –
6 | CC(C)[C@H](NC(=O)[C@H](C)NC(=O)[C@H](CCC(=O)O)NC(=O)[C@@H](N)CCC(=O)O)C(=O)N[C@@H](CCCCNC(=O)CCC(C(=O)O)N1CCN(CC(=O)O)CCN(CC(=O)O)CC1)C(N)=O (stereo partly drawn) [CL1-F1] (H-EEAVK(NODAGA)-NH2) | – | – | 0.01 | 0.05 | 0.01 | 0.22 | 2.28 | 0.07 | 0.03 | 0.01 | 0.03 | 0.02 | < 4 | –
7 | NC(=O)[C@H](CCCCNC(=O)CCC(C(=O)O)N1CCN(CC(=O)O)CCN(CC(=O)O)CC1)NC(=O)[C@H](Cc1ccccc1)NC(=O)[C@@H](N)CC(=O)O (stereo partly drawn) [CL2-F2] | – | – | 0.01 | 0.01 | 0.01 | 0.14 | 2.11 | 0.11 | 0.03 | 0.02 | 0.04 | 0.03 | < 4 | tissue uptake at 4 h [3, 12]: 0.01 %ID/g
8 | HGEGTFTSDLSKQNleEEEAVRLFIEWLKNGGPSEDEPPPSK(NODAGA)-NH2 | IEW –K(natIn-NODAGA) | E-D and D-E | – | – | – | – | – | – | – | – | – | – | – | cleaved bond [1]: D-E
9 | NC(=O)[C@H](CCCCNC(=O)CCC(C(=O)O)N1CCN(CC(=O)O)CCN(CC(=O)O)CC1)NC(=O)[C@H](CO)NC(=O)[C@@H]1CCCN1C(=O)[C@@H]1CCCN1C(=O)[C@@H]1CCCN1C(=O)[C@H](CCC(=O)O)NC(=O)[C@@H](N)CC(=O)O (stereo partly drawn) [CL3-F1] (H-DEPPPSK(NODAGA)-NH2) | – | – | – | – | – | – | – | – | – | – | – | – | – | Biodistribution of fragment, Heart [4]: 0.00 %iA/g; Biodistribution of fragment, Muscle [4]: -0.01 %iA/g; Biodistribution of fragment, Pancreas [4]: 0.00 %iA/g; tissue uptake at 4 h [3, 17]: 0.01 %ID/g; tissue uptake at 4 h [3, 18]: 0.04 %ID/g; tissue uptake at 4 h [3, 19]: 1.71 %ID/g; tissue uptake at 4 h [3, 20]: < 4 %ID/g; tissue uptake at 4 h [3, 21]: 0.04 %ID/g; tissue uptake at 4 h [3, 22]: 0.02 %ID/g; tissue uptake at 4 h [3, 23]: 0.01 %ID/g; tissue uptake at 4 h [3, 24]: 0.01 %ID/g
10 | HGEGTFTSDLSKQNleEEEAVRLFIEWLKNGGPSSGDYMGWMDFK(NODAGA)-NH2 | IEWL-DFK(natIn-NODAGA)-NH2 | G-D and M-D | – | – | – | – | – | – | – | – | – | – | – | cleaved bond [1]: M-D and G-G
